Test results from the NIST ThermoML archive (doi:10.1021/acs.jced.5b00537).

Key:
[1] = Liquid; for viscosity: Cone and plate viscometry; for mass density: Vibrating tube method; for vapor or sublimation pressure: Ebulliometric method (Recirculating still)
[2] = xn = mol fraction of the nth substance listed; conditions: 100 kPa, Liquid, x2 = 0; for viscosity: Cone and plate viscometry; for mass density: Vibrating tube method

CC(C)CO [2-methyl-1-propanol]
[1]
Conditions | mass density, 101 kPa [kg/m3] | mass density, 101.33 kPa [kg/m3] | viscosity, 101 kPa [mPa·s]
293.15 K | 801.75 | – | 4.315
298.15 K | – | 797.83 | –
303.15 K | 794.16 | – | 3.089
313.15 K | 786.27 | – | 2.261
323.15 K | 778.28 | – | 1.701
333.15 K | 769.74 | – | 1.29
343.15 K | 760.83 | – | –
353.15 K | 751.67 | – | –
363.15 K | 741.9 | – | –

[1]
Conditions | vapor or sublimation pressure [kPa]
296.87 K | 1.391
298.77 K | 1.593
300.53 K | 1.796
302.12 K | 1.995
302.29 K | 2
302.3 K | 2
309.88 K | 3.289
311.74 K | 3.692
313.42 K | 4.095
314.93 K | 4.489
316.71 K | 4.991
316.78 K | 4.995
322.51 K | 6.986
323.97 K | 7.587
325.33 K | 8.182
326.61 K | 8.784
327.82 K | 9.384
329.01 K | 9.99
329.02 K | 9.989
336.03 K | 14.47
337.45 K | 15.56
338.83 K | 16.66
340.11 K | 17.76
342.37 K | 19.95
342.51 K | 19.99
342.52 K | 19.99
357.51 K | 39.95
357.52 K | 39.94
362.71 K | 49.87
367.13 K | 59.85
370.94 K | 69.83
374.36 K | 79.82
377.44 K | 89.76
378.97 K | 94.99

CCC(C)(C)O [2-methylbutan-2-ol]
[1]
Conditions | mass density, 101 kPa [kg/m3] | mass density, 101.33 kPa [kg/m3] | viscosity, 101 kPa [mPa·s]
293.15 K | 808.77 | – | 4.596
298.15 K | – | 804.28 | –
303.15 K | 799.74 | – | 2.983
313.15 K | 790.35 | – | 2.078
323.15 K | 780.66 | – | 1.494
333.15 K | 770.4 | – | 1.093
343.15 K | 759.8 | – | –
353.15 K | 749.13 | – | –
363.15 K | 738.77 | – | –

[1]
Conditions | vapor or sublimation pressure [kPa]
296.61 K | 1.992
296.7 K | 1.99
297.94 K | 2.19
299.29 K | 2.388
300.33 K | 2.589
301.46 K | 2.791
302.54 K | 2.999
310.7 K | 4.984
311.35 K | 5.181
311.98 K | 5.383
312.29 K | 5.49
313.76 K | 5.991
315.13 K | 6.487
316.4 K | 6.987
317.37 K | 7.387
322.63 K | 9.978
322.92 K | 10
323.15 K | 10.18
323.49 K | 10.38
323.84 K | 10.58
324.14 K | 10.78
324.51 K | 10.97
325.37 K | 11.57
326.73 K | 12.38
327.62 K | 12.97
327.81 K | 13.17
329.05 K | 13.97
330.38 K | 14.96
336.11 K | 19.94
336.26 K | 19.99
337.58 K | 21.45
338.97 K | 22.94
340.32 K | 24.44
341.57 K | 25.93
341.59 K | 25.92
342.39 K | 26.94
348.11 K | 34.91
351.17 K | 39.89
351.33 K | 39.95
353.93 K | 44.88
356.46 K | 49.88
361.02 K | 59.92
372.63 K | 93.14
373.16 K | 94.89
373.29 K | 95.01
373.6 K | 96.54
374.05 K | 98.01
374.53 K | 99.81
374.93 K | 101.04
376.03 K | 104.99
377.33 K | 109.95
378.63 K | 115.02
379.87 K | 120.01
381.05 K | 124.96

CC(C)CO [2-methyl-1-propanol] + CCC(C)(C)O
[2]
Conditions | mass density [kg/m3] | viscosity [mPa·s]
293.15 K | 801.75 | 4.315
303.15 K | 794.16 | 3.089
313.15 K | 786.27 | 2.261
323.15 K | 778.28 | 1.701
333.15 K | 769.74 | 1.29
343.15 K | 760.83 | –
353.15 K | 751.67 | –
363.15 K | 741.9 | –
